This is an account of results in US20230045151A1, “COMPOSITIONS AND METHODS” (MONASH UNIVERSITY, priority 2020, published 2023).

Structures can show the parent of a compound that is named as a salt.

Data set [1] has as its system C57BL6/J mice exposed intranasally to house dust mite extract (HDM). Briefly: HDM animal model of allergic airway inflammation. Format: in vivo, mouse. How it is done: Mice received water as a control or L-tyrosine (reagent grade, ≥98% Sigma-Aldrich, St. Louis, Mo.) resuspended in drinking water under sterile conditions at the concentration of 100 mg/kg/day or 500 mg/kg/day (based on the assumption of a mouse consuming 4 ml of water daily). All mice received the treatment 2 weeks prior and throughout the experiment. […] Control mice received 200 μl of saline. […]. For experiments employing antibiotic treatment, 3-week old mice were treated with a combination enrofloxacin (10 mg/kg/day) and amoxicillin with clavulanic acid (1 mg/kg/day) for one week, followed by one week of only amoxicillin with clavulanic acid (1 mg/kg/day). Then, mice were then put on L-tyrosine diet in drinking water for two weeks followed by HDM exposure as before. During this time, mice were maintained on antibiotic treatment with amoxicillin/clavulanic acid until end of experiment.
Mice were anaesthetised by the inhalation of 4% isoflurane in oxygen for 3-5 minutes. 20 μg of protein content of crude house dust mite extract (HDM) (Greer Laboratories Inc., Lenoir, N.C.) in 20 μl of sterile phosphate-buffered saline (PBS) (Gibco™) was applied intranasally on days 0, 11, 12 and 13. Mice were humanely sacrificed with the lethal dose of pentobarbital (Streuli Pharma AG, Uznach, Switzerland) on day 14.
Bronchoalveolar lavage fluid (BALF) was collected by flushing airways with 0.5 ml PBS supplemented with 0.2% bovine serum albumin (Sigma-Aldrich, St. Louis, Mo.). Total cell number was determined with Coulter Counter (IG Instrumenten-Gesellschaft AG, Basel, Switzerland) while differential cell staining performed on cytospins stained with Diff-Quik solution (Dade Behring, Siemens Healthcare Diagnostics, Deerfield, Ill.). Percentages of neutrophils, macrophages, lymphocytes and eosinophils were assessed by counting 200 cells per sample.
Concentrations of interleukin-4, -5, -13, -17 and IFN-γ in culture supernatants were analysed with mouse Ready-Set-Go!™ ELISA kits (eBioscience™, San Diego, Calif.) according to manufacturer's instructions. To measure the levels of HDM-specific IgG1 and IgE in plasma, half area 96-well plates (Corning) were coated with HDM (10 μg in PBS) overnight at 4° C., followed by the incubation of samples for 2 hours at RT, and the addition of alkaline-phophatase-conjugated goat anti-mouse IgE or IgG1 (both from SouthernBiotech, Birmingham, Ala.; diluted at 1 μg ml-1 in PBS 0.2% BSA) for 2 hours at RT. 4-nitrophenyl phosphate sodium salt hexahydrate (pNPP) (Sigma) was used as a substrate, and the colorimetric reaction was read at 405 nm on the Synergy H1 microplate reader (Biotek, Luzern, Switzerland). To measure the levels of total IgA and IgM as well as hen egg lysozyme (HEL)-specific IgA and IgM in mouse faeces, faecal pellets were homogenized in 0.8 ml cold PBS, centrifuged at 400 g for 5 minutes to remove large debris, filtered through 40 μm cell strainer and centrifuged at 8000 g for 10 minutes to pellet bacteria. The supernatant was collected and loaded for 2 hours at RT on 96-well half area plates coated a day before at 4° C. with anti-IgA (Southern Biotech; 2 μg ml-1), anti-IgM (SouthernBiotech; 2 μg ml-1) or HEL protein (Sigma-Aldrich; 10 μg/ml). This step was followed by the addition of alkalinephophatase-conjugated goat anti-mouse IgA or IgM (both at 1 μg ml-1 in PBS 0.2% BSA) for 2 hours at RT. 4-nitrophenyl phosphate sodium salt hexahydrate (pNPP) (Sigma) was used as a substrate, and the colorimetric reaction was read at 405 nm as before.
Mediastinal lymph nodes were filtered through a 40 μm cell strainer, washed with PBS supplemented with 1% fetal bovine serum and 2 mM EDTA (Invitrogen) (MACS buffer). Lungs were finely cut with scissors, digested with Collagenase IV (Gibco™) in Iscove's modified Dulbecco's medium (IMDM, Gibco™) for 50 min at 37° C. and processed as the lymph nodes.

Data set [2] concerns CCL20. Briefly: In vitro stimulation of lung cells enriched for airway epithelial cells, chemokine release. Format: cell-based, mouse. The settings on record: 24 hours; for CCL20 production by lung cells stimulated with LPS: EGF 100 ng/ml, amphiregulin 500 ng/ml or gefitinib 0.16 μM, lower efficacy than PCS. On the procedure:
Mice were euthanized by CO2 inhalation, instilled with a 1.5 ml dispase II (Sigma-Aldrich) intratracheally, followed by intratracheal injection of 0.5 ml 1% low melting point agarose (Sigma-Aldrich). Lungs were then covered with ice for 3 min, removed and placed in a 15 ml falcon tube with 2 ml of dispase II, and incubated for 45 min with gentle agitation. This was followed by mechanical disruption of the lung lobes using forceps in DMEM supplemented with DNAse I (Sigma-Aldrich, 1U/ml), filtration through 70- and 40-μM cell strainers (Falcon®, Corning) and lysis of erythrocytes using red blood cell lysing buffer (BD Biosciences). Lung cells were plated in a flat-bottom 24-well or 96-well plates (Costar) coated with fibronectin (Sigma-Aldrich, 10 μg/ml) at the density of 1 mln or 0.2 mln cells/well, respectively.
5% CO2, after which the supernatant was collected and stored at −20° C. until further use.

Data set [3] has as its system mice exposed intranasally to ovalbumin/LPS. Put plainly: OVA/LPS animal model of pulmonary type 1 inflammation. Format: in vivo, mouse. The settings on record: PCS intravenous on day -1 and day 11. On the procedure:
Results are from one experiment (n=4 per group, p=0.0335). All data are presented as mean values+/−SEM. *p≤0.05. Statistical significance was evaluated with Mann-Whitney test.
Mice were anaesthetized by the inhalation of 4% isoflurane in oxygen for 3-5 min. 100 μg Ovalbumin (Invivogen, cat nr vac-pova) was mixed with 10 μg LPS from E. coli (Sigma-Aldrich, cat nr L4391) and administered intranasally per mouse on days 0, 11, 12 and 13. Mice were sacrificed with the lethal dose of pentobarbital on day 14.

For data set [4] the following is noted: mouse, in vivo. How it is done: Concentrations of cystatin, clusterin, lipocalin-2 and osteopontin in serum of vehicle or PCStreated mice were determined with MILLIPLEX MAP Mouse Kidney Injury Magnetic Bead Panel 2—Toxicity Multiplex Assay (Merck) according to manufacturer's instructions.
In data set [5] the test system is epithelial cells, dendritic cells, macrophages and bone marrow precursors. Briefly: Effect of PCS on cells (deleteriousness). Format: cell-based.
For data set [6] the following is noted: mice with normal renal function, cited from earlier work.
Setting [7] is: PCS intravenous 40 mg/kg, lymph node cells restimulated with HDM for 4 days.
The mark [8] stands for this setting: lung cells from naive mice, HDM 100 μg/ml, PCS 100 μg/ml.

With `Cc1ccc(OS(=O)(=O)O)cc1` [PCS, p-cresol sulfate], in data set [1] (PCS intravenous 40 mg/kg), the “FoxP3+ Tregs in the lungs” value is “no major alterations”, the “numbers of lung CD4+ T cells” value is given as “no major alterations” and the recruitment of neutrophils result is given as “reduced”. In addition, the “infiltration of DCs into the lungs” value in data set [1] (PCS intravenous 40 mg/kg, vs saline) is “decreased”. Further, in data set [1] (setting [7]), the “production of IL-5 by restimulated mediastinal lymph nodes” value is “reduced” and the “production of IL-13 by restimulated mediastinal lymph nodes” value is given as “reduced”. Further, the “eosinophilia in the BALF” value in data set [1] (PCS intravenous (retro-orbital) 40 mg/kg on day -1 and day 11, vs saline, HDM days 0, 11, 12, 13) is on record as “ameliorated”. Further, in data set [2] (setting [8]), the “HDM-induced production of CCL20” value is reported as “completely abrogated” and the “HDM-induced secretion of other chemokines” value is “did not have an effect”. Besides, the “LPS-induced CCL20” value in data set [2] (lung cells from naive mice, LPS 10 μg/ml, PCS 100 μg/ml) was “inhibited”. In data set [3] (ovalbumin/LPS), the “infiltration of CD4+ T cells to the airways” value was “inhibited” and the “infiltration of CD8+ T cells to the airways” value is given as “inhibited”. The “infiltration of neutrophils to the airways” value in data set [3] (ovalbumin/LPS intranasal days 0, 11, 12, 13) is listed as “inhibited”. The “elevation of major kidney toxicity markers” value in data set [4] is listed as “not detected”. The “deleterious effect on epithelial cells, dendritic cells, macrophages and bone marrow precursors” value in data set [5] is listed as “not deleterious”. Further, in data set [6] (intraperitoneal or oral PCS), the “time to clearance from the blood” value is at most 4 h. For the same compound, the “accumulation on chronic administration” value in data set [6] (twice a day for 4 weeks) is “does not lead to its accumulation”.
Consider `COc1cc2ncnc(Nc3ccc(F)c(Cl)c3)c2cc1OCCCN1CCOCC1` [gefitinib, reference compound], for which, in data set [2] (LPS 10 μg/ml), the “CCL20 production by lung cells stimulated with LPS” value is listed as “selective reduction”.
On the same count and under the same terms, the result for “EGF: high affinity EGFR ligand, Epidermal Growth Factor” reads “selective reduction”.
